Measured values: article PMC11207040, “Synthesis and Biological Studies of New Temporin A Analogs Containing Unnatural Amino Acids in Position 7” (Pharmaceutics, 2024)
≈ marks a conversion by molar mass, not a printed value. Where two headings read alike, the source gives them in different places. Non-standard residues stand in square brackets, D forms with d. Residues, ends and D or L forms follow the SMILES beside them. Dab = NCC[C@H](N)C(=O)O

What was measured:
[1] = 3T3 NRU cytotoxicity/phototoxicity test; assay type: cell-based, mouse; details: mouse; for CC50: cytotoxicity, no irradiation, BALB 3T3 clone A31, Neutral Red uptake, read-out: Mean CC50 ± SD, −Irr; for CC50 at 24 h: phototoxicity, irradiated 2.4 J/cm^2, BALB 3T3 clone A31, Neutral Red uptake, read-out: Mean CC50 ± SD, +Irr
Protocol: (§1) The cell lines BALB 3T3 (mouse embryonic fibroblasts) and MCF-12F (human breast epithelial cells) were used as models for healthy tissue. The MCF-7 and MDA-MB-231 cell lines were used as in vitro models for luminal A- and basal B-type breast cancer, respectively. Cell lines were obtained from the American Type Cultures Collection (ATCC, Manassas, VA, USA). Cells were cultured in Dulbecco modified Eagle’s medium (DMEM) supplemented with 10% fetal bovine serum (FBS), 100 U/mL penicillin, and 0.1 mg/mL streptomycin (Sigma-Aldrich, Schnelldorf, Germany) in an incubator at 37 °C, 5% CO2 and 95% humidity. Plastic flasks 75 cm^2 (Biologix, Lenexa, KS, USA) were used to grow the cells.
(§2) The cytotoxicity/phototoxicity testing was performed as described by the OECD Guidelines for the Testing of Chemicals, Section 4, Test No. 432: In Vitro 3T3 NRU Phototoxicity Test. BALB 3T3, clone A31 cells were grown in 75 cm^2 tissue culture flasks in DMEM high-glucose (4.5 g/L), 10% FBS, and antibiotics at 37.5 °C, in a humidified atmosphere under 5% CO2. Cells were plated at 1 × 10^4 cells / 100 μL culture medium in each well of 96-well microplates and allowed to adhere for 24 h before treatment with test compounds. Peptides were dissolved in DMSO and diluted with culture medium to working concentrations from 4 to 1000 μM. In phototoxicity tests, 96-well plates were irradiated (+Irr) with a dose of 2.4 J/cm^2 using an artificial solar light simulator Helios-iO (SERIC Ltd., Tokyo, Japan), and the cells were incubated for an additional 24 h. After treatment with a Neutral Red medium, washing, and application of the NR Desorb solution, the absorption was measured on a microplate reader at a wavelength of 540 nm. Cytotoxicity/phototoxicity was expressed as CC50 values (concentrations required for 50% cytotoxicity).

BALB 3T3 clone A31 cells = assay: 3T3 NRU cytotoxicity/phototoxicity test; assay type: cell-based, mouse; details: PIF = CC50 −Irr/CC50 +Irr; PIF < 2 = not phototoxic
Protocol: as §1, §2

[2] = test system: Arthrobacter oxydans NBIMCC 9333; assay type: cell-based; details: for Inhibition effect, A. oxydans 9333: zone of peptide over zone of antibiotic x 100; for Inhibition zone, A. oxydans 9333: 20 µL per disc, 24 h
Protocol: (§3) The parent peptide Temporin A and the novel analogs were subjected to tests against model strains Escherichia coli NBIMCC 8785, Bacillus subtilis NBIMCC 3562, Arthrobacter oxydans NBIMCC 9333, Pseudomonas aeruginosa NBIMCC 3700, and Candida albicans NBIMCC 74, for the assessment of their antimicrobial activity. The strains were acquired from the National Bank for Industrial Microorganisms and Cell Cultures (NBIMCC, Bulgaria). The strain E. coli 8785 was cultured in Luria-Bertani broth (LB, HiMedia, Mumbai, India); B. subtilis 3562—in nutrient broth (NB, HiMedia, Mumbai, India); A. oxydans 9333; P. aeruginosa 3700—in meat peptone agar (MPA) medium; and C. albicans 74—in yeast mold (YM) medium. An incubator shaker ES-20/60 (Biosan, Latvia) was used for the cultivation and was set to 30 °C for B. subtilis 3562, A. oxydans 9333, and C. albicans 74; and 37 °C for E. coli 8785 and P. aeruginosa 3700, with a 24 h shaking period at 120 rpm. The microbial cultures were then adjusted to a turbidity of 0.5 McFarland using a Grant-bio DEN-1B densitometer (Grant Instruments, Royston, UK) for further use.
(§4) The disk-diffusion method was used as an additional method, with the aim of determining the percent inhibition of the tested samples against the model strains. Sterile plates with LB/NB/MPA/YM agar medium were inoculated on the surface with 100 μL from each microbial culture and incubated at 30 or 37 °C for 30 min, for the suspension to penetrate the agar. After that, sterile paper discs (HiMedia, Mumbai, India) with a diameter of 6 mm were soaked with 20 µL of the peptide solutions with concentrations of 1.4 mg/mL and 10 mg/mL and placed on the agar surface. Sterile paper discs with 10% EtOH/H2O were used as a negative control, and the corresponding strain antibiotic disks (HiMedia, Mumbai, India)—as a positive control. The incubation of the plate was performed at 30/37 °C for 24 h. The antimicrobial activity was analyzed by measuring the diameter of the inhibition zones in mm. The experiments were conducted in triplicates, and the average values for the percent of inhibition as a correlation between the inhibition zone of the peptides over the inhibition zone of the antibiotic multiplied by 100 were calculated.

[3] = test system: Bacillus subtilis NBIMCC 3562; assay type: cell-based; details: for Inhibition effect, B. subtilis 3562: zone of peptide over zone of antibiotic x 100; for Inhibition zone, B. subtilis 3562: 20 µL per disc, 24 h
Protocol: as §3, §4

[4] = test system: Candida albicans NBIMCC 74; assay type: cell-based; details: 20 µL per disc, 24 h
Protocol: as §3, §4

[5] = test system: Escherichia coli NBIMCC 8785; assay type: cell-based; details: 20 µL per disc, 24 h
Protocol: as §3, §4

[6] = test system: Pseudomonas aeruginosa NBIMCC 3700; assay type: cell-based; details: for Inhibition effect, P. aeruginosa 3700: zone of peptide over zone of antibiotic x 100; for Inhibition zone, P. aeruginosa 3700: 20 µL per disc, 24 h
Protocol: as §3, §4

[7] = test system: Arthrobacter oxydans NBIMCC 9333; assay type: cell-based; details: broth dilution, 0 to 320 µg/mL, 24 h; NI = no inhibition monitored
Protocol: as §3
(§5) The minimal inhibitory concentration (MIC) of the peptides was determined using the broth dilution method. Stock solutions of the peptides with a concentration of 10 mg/mL in 10% EtOH/H2O were prepared. Suspensions of the bacteria in the corresponding media were added to 96-well U-shaped bottom polystyrene plates (Deltalab S.L., Spain) and exposed to the peptide in the concentration range from 0 to 320 µg/mL, and a 10% EtOH/H2O control, diluted using the same scheme as the peptides, was also used. The plates were then incubated under aerobic conditions at the corresponding temperature for 24 h. The MIC (µg/mL) was assumed as the lowest concentration of the antimicrobial, where there was visible inhibition of the strain. The absorbance was measured at 630 nm (Microplate reader PKL PPC 142, Paramedical srl, Salerno, Italy). To determine the minimal bactericidal concentration (MBC) and minimal fungicidal concentration (MFC), 10 μL from concentrations greater than or equal to the MIC was placed on the corresponding solid nutrient medium. The Petri dishes were then incubated at 30 or 37 °C for 24 h. All experiments were conducted in a triplicate.

[8] = test system: Bacillus subtilis NBIMCC 3562; assay type: cell-based; details: broth dilution, 0 to 320 µg/mL, 24 h; NI = no inhibition monitored
Protocol: as §3, §5

[9] = test system: Escherichia coli NBIMCC 8785; assay type: cell-based; details: broth dilution, 0 to 320 µg/mL, 24 h; NI = no inhibition monitored
Protocol: as §3, §5

| SMILES | CC50 [1] | CC50 at 24 h [1] | PIF (photo irritation factor) (BALB 3T3 clone A31 cells) | Inhibition effect, A. oxydans 9333 ([2]; 1.4 mg/mL) | Inhibition effect, A. oxydans 9333 ([2]; 10 mg/mL) | Inhibition zone, A. oxydans 9333 ([2]; peptide 1.4 mg/mL) | Inhibition zone, A. oxydans 9333 ([2]; peptide 10 mg/mL) | Inhibition effect, B. subtilis 3562 ([3]; 1.4 mg/mL) | Inhibition effect, B. subtilis 3562 ([3]; 10 mg/mL) | Inhibition zone, B. subtilis 3562 ([3]; peptide 1.4 mg/mL) | Inhibition zone, B. subtilis 3562 ([3]; peptide 10 mg/mL) | Inhibition zone, C. albicans 74 ([4]; peptide 1.4 mg/mL) | Inhibition zone, C. albicans 74 ([4]; peptide 10 mg/mL) | Inhibition zone, E. coli 8785 ([5]; peptide 1.4 mg/mL) | Inhibition zone, E. coli 8785 ([5]; peptide 10 mg/mL) | Inhibition effect, P. aeruginosa 3700 ([6]; 1.4 mg/mL) | Inhibition effect, P. aeruginosa 3700 ([6]; 10 mg/mL) | Inhibition zone, P. aeruginosa 3700 ([6]; peptide 1.4 mg/mL) | Inhibition zone, P. aeruginosa 3700 ([6]; peptide 10 mg/mL) | MIC, A. oxydans 9333 [7] | other results |
| --- | --- | --- | --- | --- | --- | --- | --- | --- | --- | --- | --- | --- | --- | --- | --- | --- | --- | --- | --- | --- | --- |
| CC[C@H](C)[C@H](NC(=O)CNC(=O)[C@H](CO)NC(=O)[C@H](CC(C)C)NC(=O)[C@@H](NC(=O)[C@H](CCN)NC(=O)CNC(=O)[C@@H](NC(=O)[C@H](CC(C)C)NC(=O)[C@@H]1CCCN1C(=O)[C@H](CC(C)C)NC(=O)[C@@H](N)Cc1ccccc1)[C@@H](C)CC)C(C)C)C(=O)N[C@@H](CC(C)C)C(N)=O [DTDab, FLPLIG-Dab-VLSGIL-NH2] (H-FLPLIG[Dab]VLSGIL-NH2; N-terminus assumed) | 210 ± 6.69 µM | 207 ± 7.41 µM | 1.01 | 43.2% | 76.3% | 8.2 ± 0.3 mm | 14.5 ± 0.5 mm | 0.0% | 45.2% | 0.0 mm | 11.3 ± 0.6 mm | 0.0 mm | 0.0 mm | 0.0 mm | 0.0 mm | 48.1% | 89.4% | 7.7 ± 0.6 mm | 14.3 ± 0.6 mm | 320 mg/L (≈ 239 µM) | MIC, B. subtilis 3562 [8]: 160 mg/L (≈ 119 µM); MIC, E. coli 8785 [9]: 320 mg/L (≈ 239 µM) |
| CC[C@H](C)[C@H](NC(=O)CNC(=O)[C@H](CO)NC(=O)[C@H](CC(C)C)NC(=O)[C@@H](NC(=O)[C@H](CCCCN)NC(=O)CNC(=O)[C@@H](NC(=O)[C@H](CC(C)C)NC(=O)[C@@H]1CCCN1C(=O)[C@H](CC(C)C)NC(=O)[C@@H](N)Cc1ccccc1)[C@@H](C)CC)C(C)C)C(=O)N[C@@H](CC(C)C)C(N)=O [DTF, FLPLIG-K-VLSGIL-NH2, reference compound] (H-FLPLIGKVLSGIL-NH2) | 92.4 ± 2.82 µM | 88.4 ± 1.48 µM | 1.05 | 33.5% | 57.5% | 6.7 ± 0.3 mm | 11.5 ± 0.5 mm | 34.0% | 50.8% | 8.5 ± 0.5 mm | 12.7 ± 0.6 mm | 0.0 mm | 0.0 mm | 0.0 mm | 0.0 mm | 43.8% | 64.4% | 7.0 ± 0.5 mm | 10.3 ± 0.8 mm | 80 mg/L (≈ 58.4 µM) | MIC, B. subtilis 3562 [8]: 80 mg/L (≈ 58.4 µM); MIC, E. coli 8785 [9]: 320 mg/L (≈ 234 µM) |
